From patent US20200383969A1, “RIMEGEPANT FOR CGRP RELATED DISORDERS” (Biohaven Pharmaceutical Holding Company Ltd., priority 2018, published 2020)

How the values were obtained:
[1] = Pooled liver function test profile, Studies 301 and 302; format: in vivo, human; details: pooled Studies 301+302; n = 1089
Experimental: Results from Clinical Trials—The study results from the clinical studies described in Example 2 and Example 3 are set forth in FIG. 1, FIG. 2 and Table 2, Table 3 and Table 4.
(§1) In a double-blind, randomized, placebo-controlled, multicenter study (Study 301, NCT03235479) adults ≥18 years of age with at least a 1-year history of ICHD 3-beta migraine were eligible to participate. Following a 3- to 28-day screening period, subjects were randomized to receive rimegepant 75 mg or matching placebo and instructed to treat a single migraine attack with 1 dose of the blinded study drug (rimegepant or placebo) when headache pain reached moderate or severe intensity. The coprimary endpoints were pain freedom at 2 hours postdose and freedom from the most bothersome symptom (MBS) at 2 hours postdose. Safety assessments included adverse events (AEs), ECGs, vital signs, physical measurements, and routine laboratory tests, including assessment of liver function. Unless stated otherwise, values presented are mean ±SD.
as §1, with “302, NCT03237845)” for “301, NCT03235479)”

[2] = Study 302 (BHV3000-302), Phase 3, rimegepant 75 mg tablet vs placebo, acute treatment of migraine; format: in vivo, human
Text: Clinical Trial—BHV3000-302 : Phase 3: Double-Blind, Randomized, Placebo-Controlled, Safety and Efficacy Trial of BHV-3000 (Rimegepant) for the Acute Treatment of Migraine (ClinicalTrials.gov Identifier: NCT03237845) • Study Type: Interventional (Clinical Trial) • Actual Enrollment: 1503 participants • Allocation: Randomized • Intervention Model: Parallel Assignment • Intervention Model Description: Double-blind to Sponsor, Investigator and Subject • Masking: Triple (Participant, Care Provider, Investigator) • Masking Description: Double-blind to Sponsor, Investigator and Subject • Primary Purpose: Treatment • Official Title: BHV3000-302: Phase 3: Double-Blind, Randomized, Placebo-Controlled, Safety and Efficacy Trial of BHV-3000 (Rimegepant) for the Acute Treatment of Migraine • Actual Study Start Date : Jul. 26, 2017 • Primary Completion Date : Jan. 25, 2018 • Study Completion Date : Jan. 31, 2018 • 1. Pain Freedom of rimegepant (75 mg tablet) compared with placebo in the acute treatment of migraine will be measured using the number of evaluable subjects that report no pain at 2 hours post-dose. [Time Frame: Two hours post dose] • Pain will be measured on a 4 point Likert scale (0=none, 1=mild, 2=moderate, 3=severe) • 2. Freedom from the most bothersome symptom (MBS) of rimegepant (75 mg tablet) compared with placebo will be measured using the number of evaluable subjects that report the absence of their MBS at 2 hours post-dose. [Time Frame: Two hours post dose] • The MBS (nausea, phonophobia or photophobia) will measured using a binary scale (0=absent, 1=present). • 1. […] [Time Frame: 2 hours -24 hours post-dose] • Sustained Pain Freedom as measured by a 4 point numeric rating scale (None, Mild, Moderate, Severe) • 2. Rimegepant (75 mg tablet) compared to placebo by tabulating the number of subjects that report the absence of photophobia at 2 hours post-dose in the subset of subjects that reported the presence of photophobia at headache baseline. [Time Frame: 2 hours post-dose] • Freedom from Photophobia • 3. Rimegepant (75 mg tablet) compared to placebo by tabulating the number of subjects that report the absence of phonophobia at 2 hours post-dose in the subset of subjects that reported the presence of phonophobia at headache baseline. [Time Frame: 2 hours post-dose] • Freedom from Phonophobia • 4. To measure rimegepant (75 mg tablet) compared to placebo on Pain Relief, at 2 hours post-dose, that report a pain level of moderate or severe at baseline and then report a pain level of none or mild. [Time Frame: 2 hours post-dose] • Pain Relief as measured by a 4 point numeric rating scale (None, Mild, Moderate, Severe) • 5. Freedom from Nausea will by tabulating the number of subjects that report the absence of nausea at 2 hours post-dose in the subset of subjects that reported the presence of nausea at headache baseline. [Time Frame: 2 hours post-dose] • Freedom from Nausea • 6. To measure rimegepant (75 mg tablet) compared to placebo on the probability of requiring rescue medication will be assessed using the number of subjects that take rescue medication within […] administration of study medication (BHV3000 or placebo). [Time Frame: up to 24 hours post-dose] • Requiring Rescue Medication • 7. […] [Time Frame: 2 hours-48 hours post-dose] • Sustained Pain Freedom as measured by a 4 point numeric rating scale (None, Mild, Moderate, Severe) • 8. […] [Time Frame: 2 hours-24 hours post-dose] • Sustained Pain Relief as measured by a 4 point numeric rating scale (None, Mild, Moderate, Severe) • 9. […] [Time Frame: 2 hours-48 hours post-dose] • Sustained Pain Relief as measured by a 4 point numeric rating scale (None, Mild, Moderate, Severe) • 10. Rimegepant (75 mg tablet) relative to placebo on the proportion of subjects able to function normally, at 2 hours, using the number of subjects that self-report as “normal” on the functional disability scale. [Time Frame: 2 hours post-dose] • Functional Disability Score • 11. […]

SMILES: N[C@@H]1c2cccnc2[C@H](OC(=O)N2CCC(n3c(=O)[nH]c4ncccc43)CC2)CC[C@H]1c1cccc(F)c1F [Rimegepant, [(5S,6S,9R)-5-amino-6-(2,3-difluorophenyl)-6,7,8,9-tetrahydro-5H-cyclohepta[b]pyridin-9-yl] 4-(2-oxo-3H-imidazo[4,5-b]pyridin-1-yl)piperidine-1-carboxylate]
- ALT >3 × ULN, subjects [1]: 0.1%
- ALT >ULN, subjects [1]: 2.0%
- AST >3 × ULN, subjects [1]: 0.1%
- AST >ULN, subjects [1]: 1.1%
- SAEs related to the study drug [2]: No SAEs
- AE nausea, incidence ([2]; 75 mg tablet): 1.8%
- AE nausea, n/N ([2]; 75 mg tablet): 10/543
- AE urinary tract infection, incidence ([2]; 75 mg tablet): 1.5%
- AE urinary tract infection, n/N ([2]; 75 mg tablet): 8/543
- Bilirubin elevations greater than 2 times ULN ([2]; 75 mg tablet): no bilirubin elevations
- Serum ALT or AST > ULN, n/N ([2]; 75 mg tablet): 13/543
- Serum ALT or AST > ULN, subjects ([2]; 75 mg tablet): 2.4%
- Transaminase level greater than 3 times ULN ([2]; 75 mg tablet): No subject
- Normal function at 2 hours (functional disability) vs placebo ([2]; P<0.0001): greater proportion
- Serious AEs, number of subjects ([2]; back pain): 1
- Sustained pain relief from 2 through 48 hours postdose vs placebo ([2]; single dose, no rescue medication, P<0.0001): superiority versus placebo
- Sustained pain freedom from 2 through 48 hours postdose vs placebo ([2]; single dose, no rescue medication, P=0.0181): superiority versus placebo
